From patent US6689767B2, “Triterpenes having antibacterial activity” (Regents of the University of Minnesota, priority 2000, dated 2004)

How the values were obtained:
Enterococcus faecalis = assay: Kirby-Bauer disk diffusion of lupeol derivatives, Enterococcus faecalis; type: cell-based; details: for Active against: Table 1 summary, E. faecalis
Experimental: (§1) Derivatives of lupeol were tested for inhibition of bacterial growth using the Kirby-Bauer disk diffusion method and by growth in liquid culture. For the disk diffusion method, compounds were dissolved in DMSO and 100 μl was added to the 10 mm filter paper disk. The amount of compound applied to the disk varied. The amount applied for each compound was as follows: lupeol (50 μg), lupeol-3-maleate (15 μg), lupeol-3-thiodiglycolate (15 μg), lupeol-3-dimethyl succinate (60 μg), lupeol-3-phosphate (30 μg), lupenone (50 μg), lupenon-3-oxime (50 μg), lupeol-3-amine (50 μg), lupenon-1,2-ene-2-ol (50 μg). In liquid culture, the compounds were dissolved in DMSO at 1 mg/ml and then 100 μl was added to 7 ml of sterile broth, along with a 1/200 dilution of freshly grown bacterial liquid culture.

[1] = test system: Staphylococcus epidemidis; assay: Kirby-Bauer disk diffusion of lupeol derivatives, Staphylococcus epidermidis; type: cell-based
Experimental: as §1

Staphylococcus aureus [2] = assay: Kirby-Bauer disk diffusion growth inhibition, Staphylococcus aureus; type: cell-based; details: for Zone of inhibition (mm) against S. aureus: Example 35; for Zone of inhibition Staphylococcus aureus: 100 μl on 10 mm disk, 18 hours 37° C.; for Active against: Table 1 summary, S. aureus
Experimental: (§2) The compounds disclosed herein were tested for growth inhibition against four strains of bacteria: Escherichia coli, Staphylococcus aureus, methicillin-resistant Staphylococcus aureus, and Bacillus subtilis. […] They represent […]. E. coli is a gram-negative, non-spore forming, rod-shaped, opportunistic pathogen that resides in the human digestive tract. S. aureus is a gram positive coccus, is usually found morphologically as a […], and is an opportunistic human pathogen, often residing on or in the skin. B. subtilis is a gram positive spore-forming rod. Its native environment is the soil. The chemicals were tested for growth-inhibition of the bacteria by the Kirby-Bauer method. See, e.g., Microbiology, third edition; Lansing M. Prescott, John P. Harley, and Donald A. Klein; Wm. C. Brown Publishers.
(§3) Mueller-Hinton agar (Difco Lab, Michigan) was prepared according to the manufacturer's directions, and 20 ml was dispensed in each sterile petri dish. Sterile nutrient broth (Difco Lab, Michigan) was also prepared according to the manufacturer's directions.
(§4) Bacteria were grown in liquid nutrient broth for 18 hours at 37° C. until they were turbid.
(§5) An aliquot of 0.5 ml of cultured bacteria was aseptically transferred to the surface of a Mueller-Hinton agar plat, and spread using a cotton-tipped swab. Plates were then allowed to dry for 5 minutes. Then a 10 mm diameter filter paper disk impregnated with the test chemical was placed with sterile forceps on the plate. The disks were impregnated with 100 μl of a solution of the test compound in DMSO or in water, at the indicated concentrations in Table 1.
(§6) The zones of inhibition were measured after 18 hours growth at 37° C. Tests were done in triplicate.
(§7) Additional compounds were tested for activity against E. coli, laboratory strain S. aureus (not methicillin resistant), and B. subtilis. The compounds were tested by the disk diffusion method, as in Example 1, with application of a 10 mg/mil solution of the test compound in DMSO.
as §1

bacteria = assay: Summary statements over the antibacterial assays above; type: cell-based; details: for active against at least one strain of bacteria in the assays above: summary list; for overall activity in Example 35: S. aureus, S. epidermidis, E. faecalis, disk diffusion and liquid growth
Escherichia coli = assay: Kirby-Bauer disk diffusion growth inhibition, Escherichia coli; type: cell-based; details: for Zone of inhibition Escherichia coli: 100 μl on 10 mm disk, 18 hours 37° C.; for sensitivity of E. coli: Example 34, 10 mg/ml in DMSO; for Active against: Table 1 summary, E. coli
Experimental: as §2, §3, §4, §5, §6, §7

Bacillus subtilis = assay: Kirby-Bauer disk diffusion growth inhibition, Bacillus subtilis; type: cell-based; details: for Zone of inhibition Bacillus subtilis: 100 μl on 10 mm disk, 18 hours 37° C.
Experimental: as §2, §3, §4, §5, §6, §7

Enterococcus faecilis = assay: Growth in liquid culture, optical density, E. faecalis; type: cell-based, Enterococcus faecalis; details: 600 nm, 24 hours growth, test compound at 14 μg per ml; None = 0.85
Experimental: as §1

Staphylococcus aureus [3] = assay: Growth in liquid culture, optical density, S. aureus; type: cell-based; details: 600 nm, 24 hours growth, test compound at 14 μg per ml; None = 0.08
Experimental: as §1

Staphylococcus epidermis = assay: Growth in liquid culture, optical density, S. epidermidis; type: cell-based, Staphylococcus epidermidis; details: 600 nm, 24 hours growth, test compound at 14 μg per ml; None = 0.07
Experimental: as §1

[4] = reference antibiotic, amount on disk not stated
[5] = 50 μg applied to 10 mm disk in DMSO
[6] = 60 μg applied to 10 mm disk in DMSO

CC1(C)S[C@@H]2[C@H](NC(=O)[C@H](N)c3ccccc3)C(=O)N2[C@H]1C(=O)O [Ampicillin, reference compound]
Zone of inhibition (mm) against E. faecalis (Enterococcus faecalis; [4]): 5.75 mm
Zone of inhibition (mm) against S. epiderm. [1, 4]: 2 mm
Zone of inhibition (mm) against S. aureus (Staphylococcus aureus [2]; [4]): 6.1 mm

C=C(C)[C@@H]1CC[C@]2(COC(=O)CN)CC[C@]3(C)[C@H](CC[C@@H]4[C@@]5(C)CC[C@H](OC(=O)CN)C(C)(C)[C@@H]5CC[C@]43C)[C@@H]12 [Betulin 3,28-diglycine, Betulin-3,28-diglycine]
active against at least one strain of bacteria in the assays above (bacteria): active against at least one strain of bacteria
Zone of inhibition Escherichia coli (Escherichia coli; 125 ng/ml in water): 0 mm
sensitivity of E. coli (Escherichia coli): sensitive
Active against (Escherichia coli): E. coli
Zone of inhibition Bacillus subtilis (Bacillus subtilis; 125 ng/ml in water): 0 mm
Zone of inhibition Staphylococcus aureus (Staphylococcus aureus [2]; 125 ng/ml in water): 0 mm

C=C(C)C1CCC2(COC(=O)CCC(=O)O)CC[C@@]3(C)C(CCC4[C@@]5(C)CCC(OC(=O)CCC(=O)O)C(C)(C)C5CC[C@]43C)C12 (stereo partly shown) [Betulin 3,28-disuccinate, Betulin-3,28-disuccinate]
active against at least one strain of bacteria in the assays above (bacteria): active against at least one strain of bacteria
Zone of inhibition Escherichia coli (Escherichia coli; 1 mg/ml in DMSO): 0 mm
Zone of inhibition Bacillus subtilis (Bacillus subtilis; 1 mg/ml in DMSO): 0 mm
Zone of inhibition Staphylococcus aureus (Staphylococcus aureus [2]; 1 mg/ml in DMSO): 0 mm

C=C(C)[C@@H]1CC[C@]2(COC(=O)[C@@H](N)C(C)C)CC[C@]3(C)[C@H](CC[C@@H]4[C@@]5(C)CC[C@H](OC(=O)[C@@H](N)C(C)C)C(C)(C)[C@@H]5CC[C@]43C)[C@@H]12 [Betulin-3,28-Di-L-valine ester, Betulin-3,28-di-L-valine]
active against at least one strain of bacteria in the assays above (bacteria): active against at least one strain of bacteria
sensitivity of S. aureus (Staphylococcus aureus [2]; Example 34, 10 mg/ml in DMSO): sensitive
Active against (Staphylococcus aureus [2]): S. aureus

C=C(C)[C@@H]1CC[C@]2(CO)CC[C@]3(C)[C@H](CC[C@@H]4[C@@]5(C)CC[C@H](OC(=O)/C=C/c6ccc(O)c(O)c6)C(C)(C)[C@@H]5CC[C@]43C)[C@@H]12 [Betulin-3-caffeate]
active against at least one strain of bacteria in the assays above (bacteria): active against at least one strain of bacteria
sensitivity of E. coli (Escherichia coli): sensitive
Active against (Escherichia coli): E. coli

C=C(C)C1CCC2(COC(=O)COCC(=O)O)CCC3(C)C(CCC4C5(C)CCC(O)C(C)(C)C5CCC43C)C12 (stereo not shown) [Betulin-28-diglycolate]
active against at least one strain of bacteria in the assays above (bacteria): active against at least one strain of bacteria
sensitivity of E. coli (Escherichia coli): sensitive
Active against (Escherichia coli): E. coli

O=C(N[C@H](CO)[C@H](O)c1ccc([N+](=O)[O-])cc1)C(Cl)Cl [Chloramphenicol, reference compound]
Zone of inhibition (mm) against E. faecalis (Enterococcus faecalis; [4]): 1.25 mm
Zone of inhibition (mm) against S. epiderm. [1, 4]: 0.5 mm
Zone of inhibition (mm) against S. aureus (Staphylococcus aureus [2]; [4]): 2.6 mm

C=C(C)[C@@H]1CC[C@]2(C)CC[C@]3(C)[C@H](CC[C@@H]4[C@@]5(C)CCC(=NO)C(C)(C)[C@@H]5CC[C@]43C)[C@@H]12 [Lupenon oxime, Lupenon-3-oxime]
Optical Density of E. faecalis (Enterococcus faecilis): 0.45
active against at least one strain of bacteria in the assays above (bacteria): active against at least one strain of bacteria
Zone of inhibition (mm) against E. faecalis (Enterococcus faecalis; [5]): 0.6 mm
Active against (Enterococcus faecalis): E. faecalis
Optical Density of S. aureus (Staphylococcus aureus [3]): 0.06
Zone of inhibition (mm) against S. epiderm. [1, 5]: 0 mm
Zone of inhibition (mm) against S. aureus (Staphylococcus aureus [2]; [5]): 0.4 mm
Active against (Staphylococcus aureus [2]): S. aureus,
Optical Density of S. epiderm (Staphylococcus epidermis): 0.06

C=C(C)[C@@H]1CC[C@]2(C)CC[C@]3(C)[C@H](CC[C@@H]4[C@@]5(C)C=C(O)C(=O)C(C)(C)[C@@H]5CC[C@]43C)[C@@H]12 [Lupenon-1,2-ene-2-ol]
Optical Density of E. faecalis (Enterococcus faecilis): 0.01
overall activity in Example 35 (bacteria): most active compound against almost all the bacteria
active against at least one strain of bacteria in the assays above (bacteria): active against at least one strain of bacteria
Zone of inhibition (mm) against E. faecalis (Enterococcus faecalis; [5]): 0.6 mm
Active against (Enterococcus faecalis): E. faecalis
Optical Density of S. aureus (Staphylococcus aureus [3]): 0.04
Zone of inhibition (mm) against S. epiderm. [1, 5]: 2.65 mm
Active against ([1]; Table 1 summary, S. epidermidis): S. epidermidis,
Zone of inhibition (mm) against S. aureus (Staphylococcus aureus [2]; [5]): 0.85 mm
Active against (Staphylococcus aureus [2]): S. aureus,
Optical Density of S. epiderm (Staphylococcus epidermis): 0.006

C=C(C)[C@@H]1CC[C@]2(C)CC[C@]3(C)[C@H](CC[C@@H]4[C@@]5(C)CCC(=O)C(C)(C)[C@@H]5CC[C@]43C)[C@@H]12 [Lupenone]
Optical Density of E. faecalis (Enterococcus faecilis): 0.04
overall activity in Example 35 (bacteria): excellent activity
active against at least one strain of bacteria in the assays above (bacteria): active against at least one strain of bacteria
Zone of inhibition (mm) against E. faecalis (Enterococcus faecalis; [5]): 0.5 mm
Active against (Enterococcus faecalis): E. faecalis
Optical Density of S. aureus (Staphylococcus aureus [3]): 0.04
Zone of inhibition (mm) against S. epiderm. [1, 5]: 1 mm
Zone of inhibition (mm) against S. aureus (Staphylococcus aureus [2]; [5]): 1.25 mm
Active against (Staphylococcus aureus [2]): S. aureus,
Optical Density of S. epiderm (Staphylococcus epidermis): 0.03

C=C(C)C1CCC2(C)CCC3(C)C(CCC4C5(C)CCC(OC(=O)CC(C)(C)C(=O)O)C(C)(C)C5CCC43C)C12 (stereo not shown) [Lupeol-3-(3′,3′-dimethyl)succinate]
Optical Density of E. faecalis (Enterococcus faecilis): 0.07
active against at least one strain of bacteria in the assays above (bacteria): active against at least one strain of bacteria
Zone of inhibition (mm) against E. faecalis (Enterococcus faecalis; [6]): 0 mm
Optical Density of S. aureus (Staphylococcus aureus [3]): 0.06
Zone of inhibition (mm) against S. epiderm. [1, 6]: 0 mm
Zone of inhibition (mm) against S. aureus (Staphylococcus aureus [2]; [6]): 0.5 mm
Active against (Staphylococcus aureus [2]): S. aureus
Optical Density of S. epiderm (Staphylococcus epidermis): 0.06

[H]/N=C(/N)N[C@H]1[C@H](O)[C@@H](O)[C@H](O[C@@H]2O[C@@H](C)[C@](O)(C=O)[C@H]2O[C@@H]2O[C@@H](CO)[C@H](O)[C@@H](O)[C@@H]2NC)[C@@H](N/C(N)=N\[H])[C@@H]1O [Streptomycin, reference compound]
zone of inhibition at 10 µg/disc (Escherichia coli; Escherichia coli, control antibiotic, 10 mcg): 20 mm
Zone of inhibition (mm) against E. faecalis (Enterococcus faecalis; [4]): 0 mm
Zone of inhibition (mm) against S. epiderm. [1, 4]: 0 mm
zone of inhibition at 10 µg/disc (Bacillus subtilis; Bacillus subtilis, control antibiotic, 10 mcg): 24 mm
Zone of inhibition (mm) against S. aureus (Staphylococcus aureus [2]; [4]): 1.25 mm
zone of inhibition at 10 µg/disc (Staphylococcus aureus [2]; Staphylococcus aureus, control antibiotic, 10 mcg): 15 mm
amount applied to the disk required for inhibition of S. aureus (Staphylococcus aureus [2]; disk diffusion assay, laboratory strain (not methicillin resistant)): 10 µg

Betulin 3,28-maleate
Zone of inhibition Escherichia coli (Escherichia coli; 20 mg/ml in DMSO): 0 mm
Zone of inhibition Bacillus subtilis (Bacillus subtilis; 20 mg/ml in DMSO): 0 mm
Zone of inhibition Staphylococcus aureus (Staphylococcus aureus [2]; 20 mg/ml in DMSO): 0 mm

Betulin dianiline ester
Zone of inhibition Escherichia coli (Escherichia coli; 125 ng/ml in water): 0 mm
Zone of inhibition Bacillus subtilis (Bacillus subtilis; 125 ng/ml in water): 0 mm
Zone of inhibition Staphylococcus aureus (Staphylococcus aureus [2]; 125 ng/ml in water): 0 mm

Betulin diglycolate
Zone of inhibition Escherichia coli (Escherichia coli; 125 ng/ml in water): 10.0 mm
Zone of inhibition Bacillus subtilis (Bacillus subtilis; 125 ng/ml in water): 0 mm
Zone of inhibition Staphylococcus aureus (Staphylococcus aureus [2]; 125 ng/ml in water): 0 mm

Gentamicin [reference compound]
Zone of inhibition (mm) against E. faecalis (Enterococcus faecalis; [4]): 0 mm
Zone of inhibition (mm) against S. epiderm. [1, 4]: 0 mm
Zone of inhibition (mm) against S. aureus (Staphylococcus aureus [2]; [4]): 0.1 mm

Hederine hydrate
Zone of inhibition Escherichia coli (Escherichia coli; 0.5 ng/ml in water): 0 mm
Zone of inhibition Bacillus subtilis (Bacillus subtilis; 0.5 ng/ml in water): 0 mm
Zone of inhibition Staphylococcus aureus (Staphylococcus aureus [2]; 0.5 ng/ml in water): 0 mm

Poly (ethylene glycol) bis (carboxymethyl) ester
Zone of inhibition Escherichia coli (Escherichia coli; 125 ng/ml in water): 0 mm
Zone of inhibition Bacillus subtilis (Bacillus subtilis; 125 ng/ml in water): 0 mm
Zone of inhibition Staphylococcus aureus (Staphylococcus aureus [2]; 125 ng/ml in water): 0 mm
